Data as given in PMC9851200, “Multiparameter phenotypic screening for endogenous TFEB and TFE3 translocation identifies novel chemical series modulating lysosome function” (Autophagy, 2022).

How the values were obtained:
Type in all cases: binding
[1] = target: T1, kinases (KINOMEscan panel) (Homo sapiens, UniProt O14730); conditions: RIOK3; NEW KINOMEscan
T1 sequence (O14730 1-519): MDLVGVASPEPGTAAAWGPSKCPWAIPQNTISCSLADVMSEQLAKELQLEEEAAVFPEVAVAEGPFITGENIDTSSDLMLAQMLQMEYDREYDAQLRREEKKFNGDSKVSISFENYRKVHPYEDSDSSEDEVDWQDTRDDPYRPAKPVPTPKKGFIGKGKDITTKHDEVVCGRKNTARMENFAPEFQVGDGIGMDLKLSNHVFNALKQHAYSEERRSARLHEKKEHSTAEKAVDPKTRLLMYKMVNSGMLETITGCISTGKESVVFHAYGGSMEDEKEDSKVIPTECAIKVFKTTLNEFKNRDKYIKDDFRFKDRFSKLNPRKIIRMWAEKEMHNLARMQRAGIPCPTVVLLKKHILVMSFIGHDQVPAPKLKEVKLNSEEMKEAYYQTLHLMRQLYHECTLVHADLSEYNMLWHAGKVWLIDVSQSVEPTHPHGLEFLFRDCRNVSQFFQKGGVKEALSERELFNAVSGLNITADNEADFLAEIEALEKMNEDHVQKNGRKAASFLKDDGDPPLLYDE

[2] = target: kinases (KINOMEscan panel) (Homo sapiens, UniProt O43293); conditions: DAPK3; NEW KINOMEscan
Chain of kinases (KINOMEscan panel) (Homo sapiens, UniProt O43293) (O43293 whole entry): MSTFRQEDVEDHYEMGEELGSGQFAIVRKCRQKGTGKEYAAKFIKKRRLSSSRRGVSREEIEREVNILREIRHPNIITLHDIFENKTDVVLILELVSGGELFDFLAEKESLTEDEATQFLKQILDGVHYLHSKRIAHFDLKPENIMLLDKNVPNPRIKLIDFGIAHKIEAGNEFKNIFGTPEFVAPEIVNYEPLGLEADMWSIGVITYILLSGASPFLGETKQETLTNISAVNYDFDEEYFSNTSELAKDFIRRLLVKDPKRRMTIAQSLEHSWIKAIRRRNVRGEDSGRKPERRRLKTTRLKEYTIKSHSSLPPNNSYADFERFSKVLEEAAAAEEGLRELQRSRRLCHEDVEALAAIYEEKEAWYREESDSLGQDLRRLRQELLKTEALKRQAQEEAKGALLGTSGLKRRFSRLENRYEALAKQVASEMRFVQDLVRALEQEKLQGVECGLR

[3] = target: kinases (KINOMEscan panel) (Homo sapiens, UniProt P00519); conditions: NEW KINOMEscan
[4] = target: kinases (KINOMEscan panel) (Homo sapiens, UniProt P00519, Q252H); conditions: NEW KINOMEscan; for KINOMEscan ABL1(Q252H)-nonphosphorylated: kinase ABL1(Q252H)-nonphosphorylated; for KINOMEscan ABL1(Q252H)-phosphorylated: kinase ABL1(Q252H)-phosphorylated
[5] = target: kinases (KINOMEscan panel) (Homo sapiens, UniProt P08631); conditions: kinase HCK; NEW KINOMEscan
Chain of kinases (KINOMEscan panel) (Homo sapiens, UniProt P08631) (P08631 whole entry): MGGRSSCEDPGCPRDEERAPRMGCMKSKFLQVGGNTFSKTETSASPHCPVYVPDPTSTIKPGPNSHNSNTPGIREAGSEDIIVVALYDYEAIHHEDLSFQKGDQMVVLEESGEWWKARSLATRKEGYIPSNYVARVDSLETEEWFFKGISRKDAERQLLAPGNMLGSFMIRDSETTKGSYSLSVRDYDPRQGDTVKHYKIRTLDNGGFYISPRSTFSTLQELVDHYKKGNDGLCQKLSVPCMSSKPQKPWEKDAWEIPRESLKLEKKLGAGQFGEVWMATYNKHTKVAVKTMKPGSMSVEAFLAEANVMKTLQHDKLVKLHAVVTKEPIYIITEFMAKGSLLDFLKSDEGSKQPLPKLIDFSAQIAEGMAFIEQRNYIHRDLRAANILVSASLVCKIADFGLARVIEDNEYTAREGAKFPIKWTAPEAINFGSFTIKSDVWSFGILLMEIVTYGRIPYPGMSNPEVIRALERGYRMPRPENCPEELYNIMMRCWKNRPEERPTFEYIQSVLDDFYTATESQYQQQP

[6] = target: kinases (KINOMEscan panel) (Homo sapiens, UniProt P08922); conditions: kinase ROS1; NEW KINOMEscan
Chain of kinases (KINOMEscan panel) (Homo sapiens, UniProt P08922) (P08922 28-2347): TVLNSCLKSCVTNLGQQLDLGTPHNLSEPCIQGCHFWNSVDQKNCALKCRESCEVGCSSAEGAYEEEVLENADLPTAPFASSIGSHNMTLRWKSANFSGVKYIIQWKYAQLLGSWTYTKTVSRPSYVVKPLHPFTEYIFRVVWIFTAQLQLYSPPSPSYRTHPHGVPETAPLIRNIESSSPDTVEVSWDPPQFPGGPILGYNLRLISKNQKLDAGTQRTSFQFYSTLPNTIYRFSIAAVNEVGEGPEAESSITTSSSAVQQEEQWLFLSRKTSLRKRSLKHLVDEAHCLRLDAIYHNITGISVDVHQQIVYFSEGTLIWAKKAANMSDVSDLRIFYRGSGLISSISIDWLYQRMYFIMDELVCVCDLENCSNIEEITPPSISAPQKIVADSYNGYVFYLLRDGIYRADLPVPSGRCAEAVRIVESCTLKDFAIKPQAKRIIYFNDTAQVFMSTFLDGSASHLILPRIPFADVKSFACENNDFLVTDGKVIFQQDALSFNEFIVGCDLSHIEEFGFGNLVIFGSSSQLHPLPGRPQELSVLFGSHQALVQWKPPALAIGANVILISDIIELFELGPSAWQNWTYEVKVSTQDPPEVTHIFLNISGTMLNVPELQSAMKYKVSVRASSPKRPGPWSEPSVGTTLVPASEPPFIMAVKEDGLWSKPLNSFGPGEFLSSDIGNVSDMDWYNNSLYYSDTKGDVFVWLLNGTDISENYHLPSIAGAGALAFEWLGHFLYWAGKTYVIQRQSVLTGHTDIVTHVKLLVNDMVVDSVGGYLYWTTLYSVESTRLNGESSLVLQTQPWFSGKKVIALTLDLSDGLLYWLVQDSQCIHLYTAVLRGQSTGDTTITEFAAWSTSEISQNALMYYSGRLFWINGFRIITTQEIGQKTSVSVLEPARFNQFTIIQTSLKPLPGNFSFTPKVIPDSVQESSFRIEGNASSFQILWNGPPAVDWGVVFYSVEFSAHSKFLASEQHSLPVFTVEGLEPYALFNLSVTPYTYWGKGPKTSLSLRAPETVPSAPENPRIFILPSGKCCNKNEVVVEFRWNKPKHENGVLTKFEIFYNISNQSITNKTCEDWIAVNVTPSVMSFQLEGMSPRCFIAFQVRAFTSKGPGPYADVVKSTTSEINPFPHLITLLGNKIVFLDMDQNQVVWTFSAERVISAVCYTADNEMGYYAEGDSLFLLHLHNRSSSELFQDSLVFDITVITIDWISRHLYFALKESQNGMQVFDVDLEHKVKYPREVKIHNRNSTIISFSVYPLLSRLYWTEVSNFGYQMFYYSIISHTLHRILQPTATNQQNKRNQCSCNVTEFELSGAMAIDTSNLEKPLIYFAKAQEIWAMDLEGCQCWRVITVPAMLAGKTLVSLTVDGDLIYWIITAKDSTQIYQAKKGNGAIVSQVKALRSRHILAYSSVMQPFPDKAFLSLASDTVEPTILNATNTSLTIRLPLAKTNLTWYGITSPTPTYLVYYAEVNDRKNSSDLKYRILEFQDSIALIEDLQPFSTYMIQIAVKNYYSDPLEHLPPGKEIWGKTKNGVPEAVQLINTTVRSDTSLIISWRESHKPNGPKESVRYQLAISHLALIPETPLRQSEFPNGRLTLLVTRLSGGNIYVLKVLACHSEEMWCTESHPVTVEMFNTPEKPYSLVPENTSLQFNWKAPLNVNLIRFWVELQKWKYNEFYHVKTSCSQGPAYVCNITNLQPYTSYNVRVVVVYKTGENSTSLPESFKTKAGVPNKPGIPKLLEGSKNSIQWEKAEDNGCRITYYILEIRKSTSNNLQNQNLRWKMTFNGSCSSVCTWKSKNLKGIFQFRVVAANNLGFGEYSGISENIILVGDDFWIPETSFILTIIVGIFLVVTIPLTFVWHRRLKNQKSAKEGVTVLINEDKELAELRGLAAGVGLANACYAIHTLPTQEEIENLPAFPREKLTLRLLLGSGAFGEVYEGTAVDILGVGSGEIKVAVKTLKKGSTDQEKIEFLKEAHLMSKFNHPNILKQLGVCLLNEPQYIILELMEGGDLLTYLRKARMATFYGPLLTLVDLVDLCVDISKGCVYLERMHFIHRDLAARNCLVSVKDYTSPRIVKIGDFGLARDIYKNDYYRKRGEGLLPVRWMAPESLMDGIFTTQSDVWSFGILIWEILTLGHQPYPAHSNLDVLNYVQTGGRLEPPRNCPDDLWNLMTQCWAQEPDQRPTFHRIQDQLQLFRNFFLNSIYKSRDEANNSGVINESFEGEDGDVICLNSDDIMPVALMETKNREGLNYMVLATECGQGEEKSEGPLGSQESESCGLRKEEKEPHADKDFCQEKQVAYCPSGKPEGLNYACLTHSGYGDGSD

[7] = target: kinases (KINOMEscan panel) (Homo sapiens, UniProt P36888, D835Y); conditions: kinase FLT3(D835Y); NEW KINOMEscan
[8] = target: T2, kinases (KINOMEscan panel) (Homo sapiens, UniProt Q04771); conditions: ACVR1; NEW KINOMEscan
T2 sequence (Q04771 21-509): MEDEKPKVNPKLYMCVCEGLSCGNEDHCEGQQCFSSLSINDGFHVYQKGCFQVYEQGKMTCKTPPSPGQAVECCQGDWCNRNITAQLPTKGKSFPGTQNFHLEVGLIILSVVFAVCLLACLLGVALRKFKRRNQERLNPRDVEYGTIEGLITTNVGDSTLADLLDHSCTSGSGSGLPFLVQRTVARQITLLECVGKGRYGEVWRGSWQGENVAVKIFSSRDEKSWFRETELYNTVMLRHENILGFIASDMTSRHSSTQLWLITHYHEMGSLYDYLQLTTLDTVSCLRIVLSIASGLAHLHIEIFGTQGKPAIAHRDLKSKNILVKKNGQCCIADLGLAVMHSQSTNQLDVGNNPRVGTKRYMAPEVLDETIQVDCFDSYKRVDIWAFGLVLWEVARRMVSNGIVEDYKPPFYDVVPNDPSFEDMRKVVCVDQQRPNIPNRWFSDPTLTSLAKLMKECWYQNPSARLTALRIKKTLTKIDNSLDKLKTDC

[9] = target: T3, kinases (KINOMEscan panel) (Homo sapiens, UniProt Q96PY6); conditions: kinase NEK1; NEW KINOMEscan
T3 sequence (Q96PY6 1-1258): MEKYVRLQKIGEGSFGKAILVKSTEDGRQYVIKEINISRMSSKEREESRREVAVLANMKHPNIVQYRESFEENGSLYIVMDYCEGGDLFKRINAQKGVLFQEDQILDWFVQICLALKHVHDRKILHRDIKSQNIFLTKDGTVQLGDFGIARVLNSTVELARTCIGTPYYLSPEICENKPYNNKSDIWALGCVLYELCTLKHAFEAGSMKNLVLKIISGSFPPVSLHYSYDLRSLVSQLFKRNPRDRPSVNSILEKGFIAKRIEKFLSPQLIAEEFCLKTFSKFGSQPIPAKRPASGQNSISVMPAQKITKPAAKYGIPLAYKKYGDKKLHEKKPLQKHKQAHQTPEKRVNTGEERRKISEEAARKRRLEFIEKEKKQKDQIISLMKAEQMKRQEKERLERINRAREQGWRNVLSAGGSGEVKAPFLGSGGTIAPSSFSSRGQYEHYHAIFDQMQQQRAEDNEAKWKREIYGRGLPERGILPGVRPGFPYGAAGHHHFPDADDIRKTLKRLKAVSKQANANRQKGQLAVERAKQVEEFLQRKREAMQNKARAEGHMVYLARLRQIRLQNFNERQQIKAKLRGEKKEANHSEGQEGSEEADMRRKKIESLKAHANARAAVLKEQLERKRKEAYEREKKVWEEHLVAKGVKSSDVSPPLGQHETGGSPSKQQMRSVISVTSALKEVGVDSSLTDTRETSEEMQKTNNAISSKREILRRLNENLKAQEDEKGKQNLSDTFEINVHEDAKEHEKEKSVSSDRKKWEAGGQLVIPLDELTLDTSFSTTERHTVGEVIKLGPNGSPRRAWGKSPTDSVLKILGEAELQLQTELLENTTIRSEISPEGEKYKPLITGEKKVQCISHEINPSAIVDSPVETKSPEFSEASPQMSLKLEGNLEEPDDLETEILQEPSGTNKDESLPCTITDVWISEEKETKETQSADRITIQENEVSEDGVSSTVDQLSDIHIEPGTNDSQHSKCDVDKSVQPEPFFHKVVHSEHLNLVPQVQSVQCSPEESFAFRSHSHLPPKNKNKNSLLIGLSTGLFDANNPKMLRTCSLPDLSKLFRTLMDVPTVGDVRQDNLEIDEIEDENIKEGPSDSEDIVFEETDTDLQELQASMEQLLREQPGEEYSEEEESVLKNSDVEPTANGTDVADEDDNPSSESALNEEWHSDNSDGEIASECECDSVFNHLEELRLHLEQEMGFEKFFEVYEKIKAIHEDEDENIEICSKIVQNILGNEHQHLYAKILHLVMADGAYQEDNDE

[10] = target: kinases (KINOMEscan panel) (Homo sapiens, UniProt Q9H1R3); conditions: MYLK2; NEW KINOMEscan
Chain of kinases (KINOMEscan panel) (Homo sapiens, UniProt Q9H1R3) (Q9H1R3 whole entry): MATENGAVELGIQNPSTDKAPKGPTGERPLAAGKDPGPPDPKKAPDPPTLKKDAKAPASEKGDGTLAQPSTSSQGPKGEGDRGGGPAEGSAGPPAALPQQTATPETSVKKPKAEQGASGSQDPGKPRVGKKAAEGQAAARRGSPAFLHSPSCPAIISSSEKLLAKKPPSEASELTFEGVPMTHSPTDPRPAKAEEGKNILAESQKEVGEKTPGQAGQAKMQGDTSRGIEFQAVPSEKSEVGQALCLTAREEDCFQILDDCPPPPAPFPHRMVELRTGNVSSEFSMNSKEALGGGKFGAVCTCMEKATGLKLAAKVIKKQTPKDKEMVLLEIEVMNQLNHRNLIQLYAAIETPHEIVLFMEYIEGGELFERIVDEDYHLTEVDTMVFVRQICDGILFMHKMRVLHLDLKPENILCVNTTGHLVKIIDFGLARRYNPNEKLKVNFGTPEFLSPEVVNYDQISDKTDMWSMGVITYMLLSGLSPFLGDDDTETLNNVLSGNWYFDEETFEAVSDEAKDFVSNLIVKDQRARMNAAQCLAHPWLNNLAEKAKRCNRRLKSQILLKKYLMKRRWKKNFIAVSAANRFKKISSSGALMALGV

SMILES	KINOMEscan RIOK3 [1]	KINOMEscan DAPK3 [2]	KINOMEscan ABL1-nonphosphorylated [3]	KINOMEscan ABL1-phosphorylated [3]	KINOMEscan ABL1(Q252H)-nonphosphorylated [4]	KINOMEscan ABL1(Q252H)-phosphorylated [4]	KINOMEscan HCK [5]	KINOMEscan ROS1 [6]	KINOMEscan FLT3(D835Y) [7]	KINOMEscan ACVR1 [8]	KINOMEscan NEK1 [9]	KINOMEscan MYLK2 [10]
Cc1cccc(-c2nc(Nc3ccc4nn(C)cc4c3)c3ccccc3n2)n1 [NK167]	0	0	0	41	0	0	14	0	0	0	0	0
Cc1cccc(-c2nc(N(C)c3ccc4ncsc4c3)c3ccccc3n2)n1 [NK-161]	0	0	0	29	0	0	16	0	3	0	0	9
